Results taken from ChEMBL document CHEMBL4507257, “Data for DCP probe ABT-100” (2021).

How the values were obtained:
[1] = biological target: Serine/threonine-protein kinase PLK2 (Homo sapiens) (UniProt Q9NYY3); settings: Compound concentration 1000.0 nM
[2] = biological target: Death-associated protein kinase 3 (Homo sapiens) (UniProt O43293); settings: Compound concentration 1000.0 nM
[3] = biological target: Serine/threonine-protein kinase BRSK1 (Homo sapiens) (UniProt Q8TDC3); settings: Compound concentration 1000.0 nM
[4] = biological target: SRSF protein kinase 2 (Homo sapiens) (UniProt P78362); settings: Compound concentration 1000.0 nM
[5] = biological target: Casein kinase I isoform epsilon (Homo sapiens) (UniProt P49674); settings: Compound concentration 1000.0 nM
[6] = biological target: Mitogen-activated protein kinase kinase kinase kinase 1 (Homo sapiens) (UniProt Q92918); settings: Compound concentration 1000.0 nM
[7] = biological target: Ribosomal protein S6 kinase alpha-3 (Homo sapiens) (UniProt P51812); settings: Compound concentration 1000.0 nM
[8] = biological target: Ribosomal protein S6 kinase alpha-4 (Homo sapiens) (UniProt O75676); settings: Compound concentration 1000.0 nM
[9] = biological target: TGF-beta receptor type-1 (Homo sapiens) (UniProt P36897); settings: Compound concentration 1000.0 nM
[10] = biological target: Sodium-dependent serotonin transporter (Homo sapiens) (UniProt P31645); settings: Compound concentration 10.0 uM
[11] = biological target: Non-receptor tyrosine-protein kinase TYK2 (Homo sapiens) (UniProt P29597); settings: Compound concentration 1000.0 nM
[12] = biological target: Casein kinase I isoform alpha (Homo sapiens) (UniProt P48729); settings: Compound concentration 1000.0 nM
Sequence of Casein kinase I isoform alpha (Homo sapiens) (P48729 2-337 limits assumed): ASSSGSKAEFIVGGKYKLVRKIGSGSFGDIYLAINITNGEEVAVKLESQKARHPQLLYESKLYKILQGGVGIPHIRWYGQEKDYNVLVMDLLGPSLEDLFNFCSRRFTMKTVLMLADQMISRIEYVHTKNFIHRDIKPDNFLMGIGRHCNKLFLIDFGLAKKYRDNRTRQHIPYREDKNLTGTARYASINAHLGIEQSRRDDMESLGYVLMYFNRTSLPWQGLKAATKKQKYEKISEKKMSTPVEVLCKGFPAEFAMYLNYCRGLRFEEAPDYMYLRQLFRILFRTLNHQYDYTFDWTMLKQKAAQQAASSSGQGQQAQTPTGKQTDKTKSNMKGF

[13] = biological target: Calcium/calmodulin-dependent protein kinase type II subunit beta (Homo sapiens) (UniProt Q13554); settings: Compound concentration 1000.0 nM
Sequence of Calcium/calmodulin-dependent protein kinase type II subunit beta (Homo sapiens) (Q13554 whole entry): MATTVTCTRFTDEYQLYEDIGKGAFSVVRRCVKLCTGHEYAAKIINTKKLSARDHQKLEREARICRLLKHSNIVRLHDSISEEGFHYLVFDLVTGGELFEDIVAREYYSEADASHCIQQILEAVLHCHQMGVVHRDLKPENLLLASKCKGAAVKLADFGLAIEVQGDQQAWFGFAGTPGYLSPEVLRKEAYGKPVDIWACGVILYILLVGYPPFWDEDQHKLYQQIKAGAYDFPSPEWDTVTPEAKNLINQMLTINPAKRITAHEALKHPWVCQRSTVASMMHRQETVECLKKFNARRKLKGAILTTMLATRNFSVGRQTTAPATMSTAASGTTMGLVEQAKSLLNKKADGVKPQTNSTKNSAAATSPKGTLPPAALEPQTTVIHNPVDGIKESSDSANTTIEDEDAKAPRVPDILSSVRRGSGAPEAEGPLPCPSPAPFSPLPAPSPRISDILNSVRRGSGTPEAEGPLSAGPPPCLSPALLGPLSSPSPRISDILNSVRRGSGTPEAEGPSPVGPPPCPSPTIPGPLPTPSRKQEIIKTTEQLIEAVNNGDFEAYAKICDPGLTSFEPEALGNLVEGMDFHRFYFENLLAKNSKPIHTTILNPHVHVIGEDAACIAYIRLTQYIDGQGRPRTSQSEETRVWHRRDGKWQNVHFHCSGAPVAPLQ

[14] = biological target: Tyrosine-protein kinase ABL1 (Homo sapiens) (UniProt P00519); settings: Compound concentration 1000.0 nM
[15] = biological target: SNF-related serine/threonine-protein kinase (Homo sapiens) (UniProt Q9NRH2); settings: Compound concentration 1000.0 nM
[16] = biological target: BDNF/NT-3 growth factors receptor (Homo sapiens) (UniProt Q16620); settings: Compound concentration 1000.0 nM
[17] = biological target: Calcium/calmodulin-dependent protein kinase kinase 2 (Homo sapiens) (UniProt Q96RR4); settings: Compound concentration 1000.0 nM
[18] = biological target: Cyclin-dependent kinase 18 (Homo sapiens) (UniProt Q07002); settings: Compound concentration 1000.0 nM
[19] = biological target: Inhibitor of nuclear factor kappa-B kinase subunit epsilon (Homo sapiens) (UniProt Q14164); settings: Compound concentration 1000.0 nM
[20] = system: Tyrosine-protein kinase ABL1 (Homo sapiens), P00519 [H396P]; settings: Compound concentration 1000.0 nM
[21] = biological target: Serine/threonine-protein kinase MARK1 (Homo sapiens) (UniProt Q9P0L2); settings: Compound concentration 1000.0 nM
[22] = system: Receptor-type tyrosine-protein kinase FLT3 (Homo sapiens), P36888 [R834Q]; settings: Compound concentration 1000.0 nM
[23] = biological target: Sigma intracellular receptor 2 (Homo sapiens) (UniProt Q5BJF2); settings: Compound concentration 10.0 uM
[24] = biological target: 5-hydroxytryptamine receptor 6 (Homo sapiens) (UniProt P50406); settings: Compound concentration 10.0 uM
[25] = biological target: Citron Rho-interacting kinase (Homo sapiens) (UniProt O14578); settings: Compound concentration 1000.0 nM
[26] = biological target: Epithelial discoidin domain-containing receptor 1 (Homo sapiens) (UniProt Q08345); settings: Compound concentration 1000.0 nM
[27] = system: Proto-oncogene tyrosine-protein kinase receptor Ret (Homo sapiens), P07949 [V804L]; settings: Compound concentration 1000.0 nM
Sequence of Proto-oncogene tyrosine-protein kinase receptor Ret (Homo sapiens), P07949 [V804L] (P07949 whole entry V804L): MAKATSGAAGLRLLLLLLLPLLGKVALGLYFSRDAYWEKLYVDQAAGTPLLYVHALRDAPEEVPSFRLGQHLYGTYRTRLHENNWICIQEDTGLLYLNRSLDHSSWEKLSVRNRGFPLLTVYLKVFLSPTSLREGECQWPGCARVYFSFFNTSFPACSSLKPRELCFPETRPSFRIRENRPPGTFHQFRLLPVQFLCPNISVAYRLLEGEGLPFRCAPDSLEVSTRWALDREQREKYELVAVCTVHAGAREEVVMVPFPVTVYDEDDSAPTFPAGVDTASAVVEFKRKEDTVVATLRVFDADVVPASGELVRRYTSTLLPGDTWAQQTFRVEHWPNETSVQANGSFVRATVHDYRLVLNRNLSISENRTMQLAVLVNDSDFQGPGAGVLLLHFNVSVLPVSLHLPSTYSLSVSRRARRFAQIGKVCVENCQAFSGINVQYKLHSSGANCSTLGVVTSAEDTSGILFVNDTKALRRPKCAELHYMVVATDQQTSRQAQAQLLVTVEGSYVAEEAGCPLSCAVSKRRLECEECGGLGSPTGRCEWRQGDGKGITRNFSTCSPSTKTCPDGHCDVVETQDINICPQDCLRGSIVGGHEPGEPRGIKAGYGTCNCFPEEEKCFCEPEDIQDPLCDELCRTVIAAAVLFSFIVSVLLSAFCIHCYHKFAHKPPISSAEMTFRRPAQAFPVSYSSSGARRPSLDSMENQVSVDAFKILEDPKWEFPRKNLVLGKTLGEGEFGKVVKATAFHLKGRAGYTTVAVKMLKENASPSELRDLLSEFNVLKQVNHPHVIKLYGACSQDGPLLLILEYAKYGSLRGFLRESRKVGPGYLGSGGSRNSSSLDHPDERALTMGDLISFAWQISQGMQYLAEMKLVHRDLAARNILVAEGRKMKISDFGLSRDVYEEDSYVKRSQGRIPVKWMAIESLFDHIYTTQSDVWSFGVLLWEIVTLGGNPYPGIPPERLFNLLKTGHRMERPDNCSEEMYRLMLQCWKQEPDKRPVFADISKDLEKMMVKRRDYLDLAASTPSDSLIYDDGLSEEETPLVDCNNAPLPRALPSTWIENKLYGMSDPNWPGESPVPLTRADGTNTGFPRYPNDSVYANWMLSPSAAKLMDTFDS

[28] = biological target: MAP kinase-interacting serine/threonine-protein kinase 2 (Homo sapiens) (UniProt Q9HBH9); settings: Compound concentration 1000.0 nM
[29] = biological target: 5-hydroxytryptamine receptor 1D (Homo sapiens) (UniProt P28221); settings: Compound concentration 10.0 uM
Sequence of 5-hydroxytryptamine receptor 1D (Homo sapiens) (P28221 whole entry): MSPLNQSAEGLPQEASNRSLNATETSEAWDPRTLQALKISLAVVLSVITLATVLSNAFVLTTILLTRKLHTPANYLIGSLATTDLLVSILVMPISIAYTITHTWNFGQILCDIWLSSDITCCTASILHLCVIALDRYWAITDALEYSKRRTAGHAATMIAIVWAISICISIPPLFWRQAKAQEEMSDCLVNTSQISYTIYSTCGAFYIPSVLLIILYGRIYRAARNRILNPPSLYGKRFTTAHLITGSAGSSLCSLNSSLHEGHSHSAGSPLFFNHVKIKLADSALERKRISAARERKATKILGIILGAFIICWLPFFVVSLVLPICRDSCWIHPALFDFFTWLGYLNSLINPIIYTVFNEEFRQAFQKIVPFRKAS

[30] = biological target: Rhodopsin kinase GRK1 (Homo sapiens) (UniProt Q15835); settings: Compound concentration 1000.0 nM
[31] = biological target: Ribosomal protein S6 kinase alpha-2 (Homo sapiens) (UniProt Q15349); settings: Compound concentration 1000.0 nM
[32] = biological target: Serine/threonine-protein kinase SIK1 (Homo sapiens) (UniProt P57059); settings: Compound concentration 1000.0 nM
[33] = biological target: Myosin light chain kinase family member 4 (Homo sapiens) (UniProt Q86YV6); settings: Compound concentration 1000.0 nM
Sequence of Myosin light chain kinase family member 4 (Homo sapiens) (Q86YV6 whole entry): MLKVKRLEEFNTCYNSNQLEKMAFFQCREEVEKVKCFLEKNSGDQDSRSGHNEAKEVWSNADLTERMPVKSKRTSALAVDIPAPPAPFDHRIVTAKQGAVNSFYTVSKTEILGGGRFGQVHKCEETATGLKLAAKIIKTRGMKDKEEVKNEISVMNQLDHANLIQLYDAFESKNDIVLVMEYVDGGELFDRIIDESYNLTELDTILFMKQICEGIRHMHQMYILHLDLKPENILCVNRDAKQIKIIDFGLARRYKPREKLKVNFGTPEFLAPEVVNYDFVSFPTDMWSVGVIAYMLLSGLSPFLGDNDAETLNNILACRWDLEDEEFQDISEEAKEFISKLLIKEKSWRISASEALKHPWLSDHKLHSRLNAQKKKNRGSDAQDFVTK

[34] = biological target: Tyrosine-protein kinase JAK1 (Homo sapiens) (UniProt P23458); settings: Compound concentration 1000.0 nM
[35] = biological target: Serine/threonine-protein kinase MRCK beta (Homo sapiens) (UniProt Q9Y5S2); settings: Compound concentration 1000.0 nM
[36] = biological target: Epidermal growth factor receptor (Homo sapiens) (UniProt P00533); settings: Compound concentration 1000.0 nM
[37] = biological target: Serine/threonine-protein kinase PLK3 (Homo sapiens) (UniProt Q9H4B4); settings: Compound concentration 1000.0 nM
Histamine H1 receptor = Histamine H1 receptor (Homo sapiens, UniProt P35367); settings: Compound concentration 10.0 uM
[38] = biological target: 5-hydroxytryptamine receptor 2A (Homo sapiens) (UniProt P28223); settings: Compound concentration 10.0 uM
[39] = biological target: Serine/threonine-protein kinase mTOR (Homo sapiens) (UniProt P42345); settings: Compound concentration 1000.0 nM
[40] = biological target: Dual specificity testis-specific protein kinase 1 (Homo sapiens) (UniProt Q15569); settings: Compound concentration 1000.0 nM
[41] = biological target: Serine/threonine-protein kinase Nek3 (Homo sapiens) (UniProt P51956); settings: Compound concentration 1000.0 nM
Sequence of Serine/threonine-protein kinase Nek3 (Homo sapiens) (P51956 whole entry): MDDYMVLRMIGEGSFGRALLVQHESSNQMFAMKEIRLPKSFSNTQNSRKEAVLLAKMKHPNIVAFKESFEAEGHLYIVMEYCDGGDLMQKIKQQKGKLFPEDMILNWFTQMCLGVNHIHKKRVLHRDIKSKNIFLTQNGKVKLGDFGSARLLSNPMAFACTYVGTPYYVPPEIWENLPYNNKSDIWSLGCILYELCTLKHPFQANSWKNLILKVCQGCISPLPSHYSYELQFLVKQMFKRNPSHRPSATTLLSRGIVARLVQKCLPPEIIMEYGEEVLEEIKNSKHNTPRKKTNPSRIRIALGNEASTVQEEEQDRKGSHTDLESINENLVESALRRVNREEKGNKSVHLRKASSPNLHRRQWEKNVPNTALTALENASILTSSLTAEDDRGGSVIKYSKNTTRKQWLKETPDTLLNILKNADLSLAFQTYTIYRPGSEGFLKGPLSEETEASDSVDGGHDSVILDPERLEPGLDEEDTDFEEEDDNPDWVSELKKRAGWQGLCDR

[42] = biological target: Serine/threonine-protein kinase haspin (Homo sapiens) (UniProt Q8TF76); settings: Compound concentration 1000.0 nM
Sequence of Serine/threonine-protein kinase haspin (Homo sapiens) (Q8TF76 whole entry): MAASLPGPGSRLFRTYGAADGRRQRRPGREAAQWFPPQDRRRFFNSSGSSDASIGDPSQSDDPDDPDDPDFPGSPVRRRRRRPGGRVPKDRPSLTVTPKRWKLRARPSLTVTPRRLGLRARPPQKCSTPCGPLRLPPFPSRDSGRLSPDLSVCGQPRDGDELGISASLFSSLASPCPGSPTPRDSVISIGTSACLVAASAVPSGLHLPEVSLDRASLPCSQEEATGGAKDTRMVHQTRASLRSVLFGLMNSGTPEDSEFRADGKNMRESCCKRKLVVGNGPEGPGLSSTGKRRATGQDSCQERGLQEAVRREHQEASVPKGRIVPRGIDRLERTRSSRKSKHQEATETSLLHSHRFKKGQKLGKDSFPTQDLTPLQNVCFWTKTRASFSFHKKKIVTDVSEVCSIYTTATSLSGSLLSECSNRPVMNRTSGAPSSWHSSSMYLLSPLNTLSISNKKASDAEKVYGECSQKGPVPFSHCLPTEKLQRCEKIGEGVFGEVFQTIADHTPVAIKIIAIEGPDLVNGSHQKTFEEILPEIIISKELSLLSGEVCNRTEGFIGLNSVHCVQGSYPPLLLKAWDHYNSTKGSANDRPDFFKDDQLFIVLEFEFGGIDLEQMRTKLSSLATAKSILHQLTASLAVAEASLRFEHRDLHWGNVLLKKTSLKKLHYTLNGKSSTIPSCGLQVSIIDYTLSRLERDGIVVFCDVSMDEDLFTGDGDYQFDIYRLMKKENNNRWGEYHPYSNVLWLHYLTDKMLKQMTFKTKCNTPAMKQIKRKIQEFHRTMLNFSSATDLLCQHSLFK

[43] = biological target: NT-3 growth factor receptor (Homo sapiens) (UniProt Q16288); settings: Compound concentration 1000.0 nM
Sequence of NT-3 growth factor receptor (Homo sapiens) (Q16288 32-839 limits assumed): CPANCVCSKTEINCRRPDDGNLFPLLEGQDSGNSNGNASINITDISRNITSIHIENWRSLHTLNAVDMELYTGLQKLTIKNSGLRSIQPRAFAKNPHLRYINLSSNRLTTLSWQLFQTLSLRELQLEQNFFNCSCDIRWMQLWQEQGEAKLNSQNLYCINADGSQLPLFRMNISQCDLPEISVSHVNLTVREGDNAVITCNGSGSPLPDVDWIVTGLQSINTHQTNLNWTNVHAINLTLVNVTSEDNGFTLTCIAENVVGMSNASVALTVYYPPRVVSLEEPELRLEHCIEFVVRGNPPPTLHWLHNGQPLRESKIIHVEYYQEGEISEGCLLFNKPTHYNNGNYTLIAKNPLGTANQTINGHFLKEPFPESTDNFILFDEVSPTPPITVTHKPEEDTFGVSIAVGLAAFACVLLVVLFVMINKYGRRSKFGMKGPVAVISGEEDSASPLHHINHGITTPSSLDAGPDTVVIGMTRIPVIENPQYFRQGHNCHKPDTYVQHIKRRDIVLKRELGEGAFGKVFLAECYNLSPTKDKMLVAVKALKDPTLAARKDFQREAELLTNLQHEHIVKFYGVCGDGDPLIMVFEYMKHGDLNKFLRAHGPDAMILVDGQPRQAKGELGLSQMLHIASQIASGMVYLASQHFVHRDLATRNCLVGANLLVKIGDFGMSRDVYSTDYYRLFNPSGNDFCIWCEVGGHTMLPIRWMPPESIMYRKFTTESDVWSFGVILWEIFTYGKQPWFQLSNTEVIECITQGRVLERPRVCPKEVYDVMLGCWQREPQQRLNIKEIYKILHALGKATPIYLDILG

[44] = biological target: Tyrosine-protein kinase Fyn (Homo sapiens) (UniProt P06241); settings: Compound concentration 1000.0 nM

Compound `Cn1cncc1[C@@](O)(COc1ccc(C#N)cc1-c1ccc(OC(F)(F)F)cc1)c1ccc(C#N)cc1` [A-108] has a residual activity [1] of 86%, a residual activity [2] of 100% and a residual activity [3] of 86%. It also gave a residual activity [4] of 55%, a residual activity [5] of 100% and a residual activity [6] of 100%. For the same compound, the residual activity [7] was 72%, the residual activity [8] was 93% and the residual activity [9] was 78%. The inhibition [10] was -7.91%, the residual activity [11] was 100% and the residual activity [12] was 78%. It also gave a residual activity [13] of 90%, a residual activity [14] of 95% and a residual activity [15] of 87%. The residual activity [16] was 88%, the residual activity [17] was 97% and the residual activity [18] was 100%. The residual activity [19] was 100%, the residual activity [20] was 92% and the residual activity [21] was 100%. For the same compound, the residual activity [22] was 100%, the inhibition [23] was 37.8% and the inhibition [24] was 14.2%. It also gave a residual activity [25] of 97%, a residual activity [26] of 100% and a residual activity [27] of 89%. It also gave a residual activity [28] of 74%, an inhibition [29] of 6.65% and a residual activity [30] of 100%. The residual activity [31] was 100%, the residual activity [32] was 100% and the residual activity [33] was 97%. The residual activity [34] was 92%, the residual activity [35] was 95% and the residual activity [36] was 100%. The residual activity [37] was 88%, the inhibition (Histamine H1 receptor) was 43.5% and the inhibition [38] was -4.18%. The residual activity [39] was 100%, the residual activity [40] was 92% and the residual activity [41] was 87%. The residual activity [42] was 100%, the residual activity [43] was 99% and the residual activity [44] was 97%.
In the case of `Cn1cncc1[C@](O)(COc1ccc(C#N)cc1-c1ccc(OC(F)(F)F)cc1)c1ccc(C#N)cc1` [ABT-100], the residual activity [1] is reported as 94%, the residual activity [2] is reported as 88% and the residual activity [3] is reported as 73%. The residual activity [4] was 100%, the residual activity [5] was 77% and the residual activity [6] was 100%. The residual activity [7] was 87%, the residual activity [8] was 76% and the residual activity [9] was 81%. The inhibition [10] was 1.25%, the residual activity [11] was 100% and the residual activity [12] was 100%. For the same compound, the residual activity [13] was 85%, the residual activity [14] was 100% and the residual activity [15] was 100%. For the same compound, the residual activity [16] was 92%, the residual activity [17] was 100% and the residual activity [18] was 90%. It also gave a residual activity [19] of 100%, a residual activity [20] of 100% and a residual activity [21] of 57%. For the same compound, the residual activity [22] was 98%, the inhibition [23] was 40.3% and the inhibition [24] was 6.74%. For the same compound, the residual activity [25] was 77%, the residual activity [26] was 97% and the residual activity [27] was 82%. For the same compound, the residual activity [28] was 85%, the inhibition [29] was -0.932% and the residual activity [30] was 95%. The residual activity [31] was 89%, the residual activity [32] was 95% and the residual activity [33] was 93%. The residual activity [34] was 70%, the residual activity [35] was 76% and the residual activity [36] was 80%. The residual activity [37] was 89%, the inhibition (Histamine H1 receptor) was 88.8% and the inhibition [38] was -0.429%. The residual activity [39] was 57%, the residual activity [40] was 100% and the residual activity [41] was 96%. It also gave a residual activity [42] of 100%, a residual activity [43] of 80% and a residual activity [44] of 100%.
